{"source": "patent US20140255451A1", "about": "“Implantable Medical Device Comprising A Macrocyclic Triene Lactone Drug And Minimal Antioxidant Stabilizer And Method Of Fabrication” (ABBOTT CARDIOVASCULAR SYSTEMS INC., priority 2013, published 2014)", "assay": "Decrease in BHT content on a stent due to each manufacturing step (FIG. 1)", "assay_type": "physicochemical", "settings": "for reduction of the amount of BHT present in the drug reservoir layer: everolimus/BHT Xience V stent", "from_the_text": "FIG. 1 is a graph showing the decrease in BHT content on a stent due to each step in the manufacturing process in which a macrocyclic triene lactone and BHT are present.\nFor example, with regard to the above-mentioned Xience V stent, the process steps for coating the stent include spray coating a drug reservoir layer solution comprising everolimus and BHT onto a stent, which includes a primer layer, then drying the coated stent at an elevated temperature, mounting the stent on a delivery catheter and, finally, sterilizing the mounted stent/catheter. […] FIG. 1 relates to a stent comprising everolimus as the macrocyclic triene lactone and BHT as the antioxidant stabilizer but it is understood that similar if not identical results would be observed if a different macrocyclic triene lactone were used with BHT. Likewise it is expected that similar results would be obtained in terms of the magnitude of the effect at each step of a different antioxidant stabilizer were used.\nCalculation of the proper amount of BHT to include with everolimus on a stent to arrive at a finished catheter/stent product that has the desired amount of residual BHT, i.e., about 0.001% to about 0.01% w/w based on the weight of everolimus on the stent, can be accomplished in two ways. At one extreme is stoichiometric reduction in the amount of BHT on the stent as the fabrication steps progress. In this approach, the amount of BHT drops by a constant amount at each fabrication step independent of the starting amount of BHT present. At the other extreme is a percentage drop where amount of the BHT decreases by the same percentage in each fabrication step, likewise independent of starting amount of BHT. Table 1 exemplifies these extremes compared to the known loss of BHT using the current […] stent and everolimus, which contains 0.20% (w/w) of BHT based on the weight of everolimus.\nThus, the fabrication process shown in FIG. 1 affords a drop in the amount of BHT from 0.2% in the starting material down to approximately 0.044% in the finished product. To achieve a final amount of BHT that is between the presently preferred […] and 0.01%, assuming the same proportional decrease in the amount of BHT, a starting amount in the coating solvent would be about 0.0455% (w/w) or less. On the other hand, assuming the same absolute decrease in the amount of BHT present in the finished product (stoichiometric loss), would require something less than about 0.166% (w/w) BHT in the coating solvent. Of course, a BHT reduction process that is neither stoichiometric nor proportional is possible, in which case the starting amount of BHT on the stent would be between the two extremes. It is clear, however, that beginning with about 0.0166% (w/w) BHT based on everolimus would in all instances result in a finished product have less that 0.01% (w/w) of BHT, an amount that would for all intents and purposes result in an insignificant exposure of a patient to the antioxidant."}
{"smiles": "Cc1cc(C(C)(C)C)c(O)c(C(C)(C)C)c1", "note": "[BHT, butylated hydroxytoluene]", "values": [{"measurement": "reduction of the amount of BHT present in the drug reservoir layer", "setting": "catheter mounting step", "value": "about 1%"}, {"measurement": "% Antioxidant (w/w, based on everolimus) in finished product", "setting": "current XV process, 0.20% BHT initially provided in everolimus", "value": "approximately 0.044 % (w/w, based on everolimus)"}, {"measurement": "reduction of the amount of BHT present in the drug reservoir layer", "setting": "drying step at elevated temperature", "value": "about 9%"}, {"measurement": "reduction of the amount of BHT present in the drug reservoir layer", "setting": "ethylene oxide sterilization step", "value": "about 64%"}, {"measurement": "additional reduction of BHT", "setting": "follow-up ethylene oxide sterilization on the already sterilized catheter/stent", "value": 30, "unit": "%"}, {"measurement": "reduction of the amount of BHT present in the drug reservoir layer", "setting": "spray coating step", "value": "about 61%"}]}
